Measurements from patent US20140243396A1, “METHOD OF TREATING MUCOEPIDERMOID CARCINOMA” (DANA-FARBER CANCER INSTITUTE, INC., priority 2011, published 2014).

Legend:
[1] = system: HSY cells; assay: Cell growth, cell count by trypan blue exclusion; assay type: cell-based
Method: (§1) FIG. 2 illustrates inhibition of PDE4B by pharmacological inhibitor rolipram plus forskolin prevents cell growth, causes cell cycle arrest and induces apoptosis in fusion positive MEC cells. Rolipram (R), forskolin (FK), Rolipram plus forskolin (R+FK) or DMSO. Columns: mean, bars: SD (n>3), *p<0.05, **p<0.01, ***p<0.001, compared to HSY cell growth. B. 1×10^5 cells were treated with 50 μM R plus 20 μM FK or DMSO for 24 hours. C. 1×10^5 cells were treated with 50 μM rolipram plus 20 μM forskolin with or DMSO for 48 hours. Apoptosis assay was performed by PI and Annexin-V staining and analyzed by flow cytometry. Columns: mean, bars: SD (n=3). *p<0.05, compared with DMSO treated cells.
(§2) FIG. 3 illustrates knock-down of PDE4B inhibits fusion positive MEC cell growth, causes cell cycle arrest and induces apoptosis. A. H3118 cell lysate was prepared on day 5 post-transduction and subjected to western blot analysis. Image was cropped and auto-leveled by Photoshop. A representative of three independent experiments. B. 1×10^5 MEC cells were infected twice by shRNA No. 1 and No. 2 and cell number was count on day 5 post-transduction by trypan blue exclusion. Columns: mean, bars: SD (n>3). *p<0.05, **p<0.01, compared with scramble control virus infected cell growth. C. 1×10^5 cells were infected twice by shRNA No. 2. Cell cycle was determined by PI staining followed by FACS analysis on day 5 post-transduction, n=3. D. 1×10^5 cells were infected twice by shRNA No. 2. Apoptosis assay was performed by PI and Annexin-V staining and analyzed by flow cytometry on day 5 post-transduction, Columns: mean, bars: SD (n=3). *p<0.05, compared with control cells.
(§3) The Methods were described previously (Chen et al. Genes Cancer, 1:822-835 (2010)). Cell growth: 1-2×10^5 cells were infected with lenti-virus harboring specific shRNAs. On day 5 post infection, cells were counted by trypan blue exclusion. MTS proliferation assay (Promega, Madison, Wis.): 1-2×10^3 cells were treated with LY-294002, Compound A or DMSO in the concentration as indicated in FIG. 6A. MTS activities were measured on day 5. Cell cycle analysis: 1×10^5 cells were treated with inhibitors or infected with viruses. DNA amount was measured by flow cytometry analysis (BD FACScans). Apoptosis assay: 1×10^5 cells were treated with inhibitors or infected with virus. Cell viability was measured using the Annexin-V-FLUOS Staining Kit (Roche Diagnostics, Indianapolis, Ind.) by flow cytometry analysis (BD FACScans).

[2] = system: H292 and H3118 cells; assay: Cell growth, cell count by trypan blue exclusion; assay type: cell-based
Method: as §1
FIG. 6 illustrates PI3-kinase signaling contributes to MEC cell growth. A. Effects of PI3-kinase inhibitor LY-294002 or Compound A on MEC cell growth. […] The same blot was stripped and probed with anti-AKT or anti-V.-actin antibody. Image was cropped and auto-leveled by Photoshop. A representative of three independent experiments. (Right) MEC cell growth was measured by MTS assay on day 5 of LY-294002 or Compound A treatment. Points: mean, bars: SD (n=3). B. Effects of knock-down of PI3-kinase α or β on MEC cell growth. […] H3118 cell lysates were prepared on day 5 post-transduction. Image was cropped and auto-leveled by Photoshop. (Lower) Effects of knock-down of PI3-kinase α or β on MEC cell growth. 1×10^5 cells were transduced twice with lenti-viruses harboring shRNAs targeting PI3-K α, β or scramble control. Cell numbers were counted by trypan blue exclusion on day 5 posttransduction. Cell growth of scramble control virus infected cells was set to 100%, Columns: mean, bars: SD (n=3). **p<0.01, ***p<0.001 compared to control cells. C. Effects of Compound A in combination of rolipram plus forskolin on of MEC cell growth. 1×10^5 cells were treated with the combination of inhibitors listed. Cell numbers were counted by trypan blue exclusion on day 5, Columns: mean, bars: SD (n=3).
as §3

[3] = system: PDE4B; assay: PDE4B expression in cells (qPCR); assay type: cell-based; details: vs shLUC
Method: FIG. 1 illustrates identification of CRTC1-MAML2 Target genes. […] RT-qPCR experiments were performed in triplicates. Columns: mean, bars: SD (n=3). *p<0.05, compared with expression from shLUC infected cells (Student t test). B Inhibition of CRTC1-MAML2 inhibited H3118 and H292 cell growth. Columns: mean, bars: SD (n=3). *p<0.05, **p<0.01, ***p<0.001, compared with shLUC. […] Columns: mean, bars: SD (n=3). […] Image was cropped and auto-leveled by Photoshop. A representative of three independent experiments.
Total RNA was isolated by the Trizol method (Invitrogen). qPCR was performed using ABI PRISM 7500 sequence detector (Applied Biosystems, Foster City, Calif.) by SYBR method (Applied Biosystems). The SYBR method uses SYBR Green I dye, which is a highly specific, double-stranded DNA binding dye, to detect PCR product as it accumulates during PCR cycles. All samples were amplified in triplicates. The relative change of transcript amount was normalized with the GAPDH mRNA expression levels (20).

[4] = system: H292 and H3118 cells; assay: MTS proliferation assay; assay type: cell-based; details: Homo sapiens, NCI-H292, 120 h, MTS assay on day 5 of treatment, read-out: IC50, cell growth
Method: FIG. 6 illustrates PI3-kinase signaling contributes to MEC cell growth. A. Effects of PI3-kinase inhibitor LY-294002 or Compound A on MEC cell growth. […] The same blot was stripped and probed with anti-AKT or anti-V.-actin antibody. Image was cropped and auto-leveled by Photoshop. A representative of three independent experiments. (Right) MEC cell growth was measured by MTS assay on day 5 of LY-294002 or Compound A treatment. Points: mean, bars: SD (n=3). B. Effects of knock-down of PI3-kinase α or β on MEC cell growth. […] cell lysates were prepared on day 5 post-transduction. Image was cropped and auto-leveled by Photoshop. […] Cell numbers were counted by trypan blue exclusion on day 5 posttransduction. […] SD (n=3). **p<0.01, ***p<0.001 compared to control cells. C. […] Cell numbers were counted by trypan blue exclusion on day 5, Columns: mean, bars: SD (n=3). The Methods were described previously (Chen et al. […] On day 5 post infection, cells were counted by trypan blue exclusion. MTS proliferation assay (Promega, Madison, Wis.): 1-2×10^3 cells were treated with LY-294002, Compound A or DMSO in the concentration as indicated in FIG. 6A. MTS activities were measured on day 5. […] DNA amount was measured by flow cytometry analysis (BD FACScans). […] Cell viability was measured using the Annexin-V-FLUOS Staining Kit (Roche Diagnostics, Indianapolis, Ind.) by flow cytometry analysis (BD FACScans).

[5] = system: H3118 cells; assay: Cell cycle analysis by flow cytometry; assay type: cell-based; details: PDE4B knock-down, day 5 post-transduction; scramble control 57%
Method: as §1, §2
(§4) The Methods were described previously (Chen et al. Genes Cancer, 1:822-835 (2010)). […] On day 5 post infection, cells were counted by trypan blue exclusion. […] MTS activities were measured on day 5. […] DNA amount was measured by flow cytometry analysis (BD FACScans). […] Cell viability was measured using the Annexin-V-FLUOS Staining Kit (Roche Diagnostics, Indianapolis, Ind.) by flow cytometry analysis (BD FACScans).

[6] = system: HSY cells; assay: Cell cycle analysis by flow cytometry; assay type: cell-based; details: PDE4B knock-down
Method: as §1, §2, §4

[7] = system: H292 cells; assay: Cell cycle analysis by flow cytometry; assay type: cell-based; details: PDE4B knock-down, day 5 post-transduction; scramble control 50%
Method: as §1, §2, §4

[8] = system: HSY cells; assay: Apoptosis assay, PI and Annexin-V staining; assay type: cell-based; details: PDE4B knock-down, day 5 post-transduction
Method: as §1
(§5) FIG. 3 illustrates knock-down of PDE4B inhibits fusion positive MEC cell growth, causes cell cycle arrest and induces apoptosis. […] Cell cycle was determined by PI staining followed by FACS analysis on day 5 post-transduction, n=3. […] Apoptosis assay was performed by PI and Annexin-V staining and analyzed by flow cytometry on day 5 post-transduction, Columns: mean, bars: SD (n=3). *p<0.05, compared with control cells.
(§6) The Methods were described previously (Chen et al. Genes Cancer, 1:822-835 (2010)). […] On day 5 post infection, cells were counted by trypan blue exclusion. […] MTS activities were measured on day 5. […] DNA amount was measured by flow cytometry analysis (BD FACScans). […]

[9] = system: H292 and H3118 cells; assay: Apoptosis assay, PI and Annexin-V staining; assay type: cell-based; details: PDE4B knock-down, day 5 post-transduction
Method: as §1, §5, §6

[10] = system: H3118 cells; assay: Cell growth, cell count by trypan blue exclusion; assay type: cell-based; details: PDE4B knock-down, day 5 post-transduction, compared to scramble control
Method: as §2, §3

[11] = system: H292 cells; assay: Cell growth, cell count by trypan blue exclusion; assay type: cell-based; details: PDE4B knock-down, day 5 post-transduction, compared to scramble control
Method: as §2, §3

[12] = system: H3118 cells; assay: In vivo murine xenograft model; set-up: species or system SCID hairless (SHO) mice
Text: FIG. 4 illustrates knock-down of PDE4B inhibited MEC cell growth in vivo. A. Tumor volume in SCID hairless mice. Points: mean of 5 tumors, bars: SD (n=5). ***p<0.001, compared to control tumor. B. Representative picture of the tumors dissected from the mice after sacrifice on day 30. Five pair (shPDE4B vs. scramble control) of tumors was shown (n=5). C. Tumor weight from SCID hairless mice. Tumors were weighted on day 30 at sacrifice. Columns: mean, bars: SD (n=5). ***p<0.001, compared to control tumor weight. D. RT-qPCR analysis of PDE4B expression from the tumor biopsies. Columns: mean, bars: SD (n=3). ***p<0.001, compared to control tumor.
Mice were maintained and treated in accordance with institutional guidelines of Dana Farber Cancer Institute Animal Resource Facilities. H3118 cells were infected twice with shPDE4B-2 or scramble control virus. On day three post-transduction, 5×10^6 shPDE4B cells were injected subcutaneously (s.c.) into one flank of a SCID hairless (SHO) mice (Charles River Laboratories International, Inc., Wilmington, Mass.) and 5×10^6 control cells were injected into the opposite flank (Dubrovska et al., Proc Natl Acad Sci USA, 2009, 106: 268-273; Serra et al. Cancer Res, 2008, 68: 8022-8030). A total of five mice were used. The tumor volume was measured every two days starting from day 10, volume=(length×width2)×(π/6). Mice were sacrificed on day 30. The tumors were excised and the weight was measured.

[13] = system: H3118 cells; assay: Microarray gene expression after CRTC1-MAML2 knock-down; assay type: cell-based
Method: H3118 or HSY cells were transduced twice with retro-virus harboring shLUC or sh#D. GFP-positive cells were sorted 48 hours post-transduction. Total RNA was extracted using Trizol reagents (Invitrogen) and purified by RNAeasy Mini Column (QIAGEN). Hybridization with Affymetrix U133A plus—2 microarray chips was performed and analyzed at Dana-Farber Cancer Institute Microarray Core. The d-Chip analysis software was used for the analysis; Li, C. and Wong, W. H. Proc. Natl. Acad. Sci. USA […]. Genes with three fold expression changes in H3118 cells were considered significant (n=3, p<=0.05).

[14] = retroviral shRNA, fusion-negative HSY cells, compared to shLUC
[15] = retroviral shRNA, fusion-positive H292 and H3118 cells, compared to shLUC

Compound: shRNA #A: small hairpin RNA targeting the MAML2 moiety of CRTC1-MAML2, GTAATCAACCTAACACATA, SEQ ID NO 3
- cell growth (in words) [1, 14]: no significant effect
- cell growth (in words) [2, 15]: significantly inhibited cell growth
- PDE4B expression (in words) ([3]; H3118 and H292 cells): significantly inhibited PDE4B expression
- PDE4B expression (in words) ([3]; fusion negative HSY cells): not

Compound: Cn1c(=O)n(-c2ccc(C(C)(C)C#N)cc2)c2c3cc(-c4cnc5ccccc5c4)ccc3ncc21 [Compound A, 2-methyl-2-[4-(3-methyl-2-oxo-8-quinolin-3-yl-2,3-dihydroimidazo[4,5-c]quinolin-1-yl)-phenyl]propionitrile]
- effect on MEC cell growth when combined with rolipram and forskolin ([2]; MEC cells, cell count by trypan blue exclusion on day 5): additive effect
- IC50 [4]: 6 to 20 nM

Compound: shRNA #2: shRNA lenti-viral construct targeting PDE4B, SEQ ID NO 2 (CCGGGCGCAGAGAGTCATTTCTCTACTCGAGTAGAGAAATGACTCTCTGCGCTTTTTG)
- cells arrested at G0/G1 phase [5]: 79%
- cell cycle arrest (in words) [6]: much less effect
- cells arrested at G0/G1 phase [7]: 78%
- cell growth (in words) ([1]; HSY cells, PDE4B knock-down): slight growth reduction
- apoptosis (in words) [8]: no significant effect
- apoptosis (in words) [9]: significant apoptosis
- growth inhibition [10]: 83%
- growth inhibition [11]: 74%
- tumor growth in vivo (in words) ([12]; H3118 cells with PDE4B knock-down vs control cells, s.c., tumor volume every two days): significantly slower
- repression of PDE4B expression in tumor biopsies ([12]; RT-qPCR, compared to controls): 71%
- average tumor weight, less than controls ([12]; day 30 at sacrifice): 88%

Compound: COc1ccc(C2CNC(=O)C2)cc1OC1CCCC1 (stereo not shown) [rolipram, 4-(3-cyclopentyloxy-4-methoxyphenyl)pyrrolidin-2-one]
- cell growth (in words) ([2]; inhibitor treatment, MEC cells): not changed

Compound: shRNA #D: small hairpin RNA targeting the MAML2 moiety of CRTC1-MAML2, GACAGAGCCTGGTAATGAT, SEQ ID NO 4
- PDE4B expression, down-regulation ([13]; CRTC1-MAML2 depletion): 17 fold
- HES2 expression, up-regulation ([13]; CRTC1-MAML2 knock-down vs luciferase knock-down): 7 fold
- cell growth (in words) [1, 14]: no significant effect
- cell growth (in words) [2, 15]: significantly inhibited cell growth
- PDE4B expression (in words) ([3]; H3118 and H292 cells): significantly inhibited PDE4B expression
- PDE4B expression (in words) ([3]; fusion negative HSY cells): not

Compound: shRNA #1: shRNA lenti-viral construct targeting PDE4B, SEQ ID NO 1 (CCGGGCTTGAGTAAATCCTACAGTTCTCGAGAACTGTAGGATTTACTCAAGCTTTTTG)
- cell growth (in words) ([1]; HSY cells, PDE4B knock-down): slight growth reduction
- growth inhibition [10]: 83%
- growth inhibition [11]: 74%

Compound: O=c1cc(N2CCOCC2)oc2c(-c3ccccc3)cccc12 [LY-294002]
- IC50 [4]: 4000 to 10000 nM
